Entries after “also recorded” stand apart in the source; their conditions may differ.
Experiments:
[1] = system: mixed culture of wild type nematodes (roundworms, tape worms and flukes); experiment: Nematode testing: mixed culture of wild type nematodes; format: in vivo; settings: 20 h incubation
Protocol: A mixed culture of wild type nematodes (roundworms, tape worms and flukes), obtained from Massey University's sheep farm, were incubated for 20 h with compound 14, compound and commercially available ivermectin B1a, as a control. The protocol followed is the same as the C. elegans protocol used previously.

[2] = system: C. elegans; experiment: Conjugate uptake in C. elegans (dye and praziquantel conjugates, fluorescence microscopy); format: in vivo, Caenorhabditis elegans; settings: 50 μM
Protocol: Nematode Growth Media (NGM) plates containing C. elegans were washed with 1.0-1.5 mL of standard M9 buffer and the washes were collected in an Eppendorf tube. The liquid containing the C. elegans was then spun for 1 min at room temperature at 10,000 rpm. The supernatant was removed, and fresh M9 buffer was added (500 μL) to generate a new stock solution of M9 buffer containing the C. elegans.
A C. elegans suspension (100 μL) was added a defined amount of M9 buffer (determined by the final desired concentration of compound to be tested: 399 μL in the case of the BODIPY tagged derivatives) contained within a separate Eppendorf tube. To this was then added a 25 mM solution of the compound in DMSO (1 μL). The resulting suspension was mixed using a vortex instrument.
The resulting mixture was incubated at room temperature for 2 to 4 h. in the dark (using aluminium foil to screen the tube, which was also stored in a cabinet).
Other samples were incubated overnight. Here, OP50 bacteria (3 μL) were added to the worms for feeding purposes, and the worms were kept in the dark at 20° C.
After the incubation, the tube contents were mixed gently by hand (typically by simple rotation of the tube), so as to achieve a homogenous suspension. A sample of the suspension (250 μL) was taken and mixed with M9 buffer (500 μL). The resulting suspension was placed in a centrifuge and spun at room temperature at 10,000 rpm for 1 min. The supernatant was removed, and the washing process was repeated twice more, each time using further quantities of fresh M9 buffer (500 μL each time). After the final washing sufficient supernatant was removed so as to leave a final sample volume of approximate 30 μL.
A 1.5% agarose solution in water was pre-warmed for 60 to 90 s. in a standard household style microwave (set to Power 4). Two drops of this solution was removed and placed on a glass slide. The glass slide was covered with a second glass slide. After 1 min., the slides were slid carefully apart, with the agarose remaining on one of the slides. Onto this slide was placed an aliquot of the final C. elegans solution (15 to 20 μL). To this was added a 20 mM sodium azide solution (5 μL) to inhibit nematode mobility. Vaseline was then placed around the agarose area before replacing the second slide. The slides were not pressed together.
The nematodes were then analysed using a Zeiss Axiskop 2 Plus microscope with a Hamamatsu Orca-ER (CA 742-95) camera. The images were resolved using OpenLab on a Mac operating system.
Compounds 1-11 were evaluated after 3 h and overnight incubation at a 50 μM concentration using the general uptake protocol described for C. elegans.
In order to compare the ability of a conjugate to improve the uptake of the drug praziquantel, two praziquantel derivatives were generated. Praziquantel was tagged with a BODIPY fluorescent tag (compound 12) and incorporated into a conjugate of the invention (compound 13). Compounds 12 and 13 were evaluated at a concentration of 50 μM using the C. elegans uptake protocol described above for compounds 1-11. Microscopic readings were taken after 3, 24 and 72 h.

[3] = system: P. falciparum; experiment: Plasmodium falciparum testing: uptake by infected and non-infected red blood cells; format: cell-based; settings: 25 μM, 45 minutes, 37° C., synchronised stage and mix-stage cultures
Protocol: Compounds 1, 5, 9, 10 and 11 were tested for uptake in both synchronised stage and mix-stage cultures at 25 μM concentrations.

[4] = system: T. brucei; experiment: Trypanosoma brucei testing: uptake; format: cell-based; settings: 10-25 μM, 45 minutes, 37° C.
[5] = system: T. annulata; experiment: Theileria annulata testing: uptake; format: cell-based; settings: 1 hour, 37° C.
Protocol: T. annulata were cultured using RPMI 1640 with 10% Albumax II (Thermo-Fisher) serum. A standard hemocytometer was used to calculate the concentration of cells in the parent culture. […] For each compound and concentration to be tested, 2 mL of the culture were centrifuged at 1,000 rpm for 5 minutes. The medium was removed before the cells were resuspended in 950 μL of complete medium containing the compound to be tested at the desired concentration. This was prepared from a 100 mM stock solution of compound in DMSO. Once the cells were resuspended they were transferred to a 5 well plate (1 mL capacity per well). They were then incubated for 1 hour at 37° C. in an atmosphere of 5% CO2 in air. After the incubations were complete the contents of each well were transferred to a 10 mL centrifuge tube. Cold RPMI 1640 (Thermofisher) or HBSS added to obtain a volume of 5 mL. The suspension was then centrifuged at 1,000 rpm and at 4° C. for 5 minutes. […] After the final washing the pellet of cells was resuspended in a minimum amount of RPMI 1640 and then spotted onto a glass slide. The slide was then covered with a cover slip and analysed using Olympus BX60 UV microscope system with a Spot RT3 camera and Spot Image software with a FITC fluorescent filter.

[6] = system: M. tuberculosis strain H37Rv; experiment: Uptake test in M. tuberculosis; format: cell-based, Mycobacterium tuberculosis; settings: 50 μg/mL (~80 μM), room temperature, 45 min
[7] = system: L. passim strain PRA-403; experiment: Lotmaria passim parasite uptake test; format: cell-based; settings: room temperature, 45 min
Protocol: 100 mM stock solutions of BODIPY derivatives were prepared with dimethylsulfoxide (DMSO). L passim strain PRA-403 (ATCC) was cultured in modified medium for C. bombi (Tognazzo et al.). The parasite culture was centrifuged, supernatant was removed and 500 μL of L passim medium with compound (final concentration 500, 100, 10 or 1 μM for BODIPY derivatives) or DMSO (0.1%) control was added. Incubated for 45 min at room temperature.
Uptake tests were performed at 1 μM and 100 μM final concentration of CJ-BODIPY derivatives. After incubation at room temperature for 45 min, fluorescence intensities were evaluated using a microplate reader.

[8] = system: gastrointestinal system (crop, midgut and rectum) of adult honey bees; experiment: Honey bee gut uptake test; design: species or system Apis mellifera; settings: 100 μM, 33° C., 45 min
Protocol: Honey bee (A. mellifera) hives were obtained and allowed to feed ab libitum spring to autumn. During the winter period, pollen mixed with 50% (v/v) sucrose was added to the honey bee hives in order to provide sufficient food. Honey bees were dissected and gastrointestinal system was removed including the crop, midgut and rectum, and added immediately to 500 μL of the delivery vehicle to be tested sample diluted with PBS at 100 μM final concentration or DMSO (0.1%) control. The mixture was incubated for 45 min at 33° C.
The gastrointestinal system (crop, midgut and rectum) of adult honey bees was extracted, and incubated with derivatives 1, 2, 8 and 11 at 100 μM and 33° C. for 45 min.

[9] = system: B. bovis Texas strain; experiment: Short-term uptake test in B. bovis infected RBCs (confocal microscopy); settings: 25 μM, 37° C., 45 min, ~5% PPE
Protocol: The parasite culture was centrifuged and washed once with GIT medium. RBC's were pellet down, and 20 μl infected RBC mixture (10 μl packed infected RBC+10 μl GIT) was prepared. Then, 180 μl GIT medium with compound the compound to be evaluated (final concentration 25 μM for BODIPY derivatives and 100 μM for phiLOV derivatives) or DMSO (0.1%)/PBS control was added. The samples were incubated for 45 min at 37° C. (Samples were stained 1 μg/mL diluted Hoechst 33342 in GIT medium). After incubation, the samples were centrifuged and the pellet was washed with GIT medium (3×). A final solution of 50% haematocrit infected RBC mixture was transferred to slides to be observed by confocal laser microscopy (Nikon A1).
Uptake experiments were performed by incubating the parasite (˜5% Parasitized Erythrocytes (PPE)) with each derivative at 25 μM and 37° C. for 45 min. After incubation, the fluorescence intensities were calculated from confocal microscope images.
The phiLOV double mutant (R475G, K476C) was used to generate derivatives P11, P1, P8, and P3 which were tested for uptake in B. bovis Texas strain using phiLOV as a control. The derivatives and the control were incubated at 100 μM and 37° C. for 45 min. After incubation, the samples were analysed under confocal microscopy using Hoeschst 33342 (Thermofisher) as co-stain.

4″-O—[(R,Z)-3-(2,2,5,5-Tetramethyl-1,3-dioxane-4-carboxamido)acrylate]avermectin B1a [Compound 14]
activity against nematodes relative to ivermectin B1a [1]: enhanced activity against nematodes relative to commercially available ivermectin B1a
concentration at which nematodes showed paralysis [1]: 5 µM

CC1=CC(C)=[N+]2C1=Cc1ccc(CCCn3cc(CCNC(=O)CCNC(=O)[C@H](O)C(C)(C)CO)nn3)n1[B-]2(F)F [Compound 9, (R)—N-((((3-[4,4-Difluoro-5,7-dimethyl-4-bora-3a,4a-diaza-s-indacene-3-yl]propyl)-1H-1,2,3-triazol-4-yl)ethylamino)-3-oxopropyl)-2,4-dihydroxy-3,3-dimethylbutanamide]
uptake compared to other compounds ([2]; 3 h incubation): the amount of fluorescence was lower than the enamide derivatives, compounds 1 to 8
uptake: location of fluorescence in C. elegans ([2]; 3 h incubation): traces of compound 9 were visible in the get cells and to a lesser extent 30 in the pharynx of both the larvae and the adult nematodes
uptake: location of fluorescence in C. elegans ([2]; 20 h / overnight incubation): small amounts of fluorescence could be detected in the gut cells of both larval and adult stages
uptake compared to other compounds ([2]; 20 h incubation): the amount of fluorescence was lower than the enamide derivatives, compounds 1 to 8
uptake by infected and non-infected red blood cells [3]: taken up very quickly by both infected and non-infected erythrocytes, with very little difference in uptake between the two sets of red blood cells
uptake in T. brucei [4]: taken up much more rapidly and in much higher concentrations than compound 5; also recorded: spread throughout the cell
uptake in T. annulata [5]: taken up by T. annulata; also recorded: taken up more rapidly and fluorescence can be detected at lower concentrations albeit it is also present in the infected lymphocyte

CC1=CC(C)=[N+]2C1=Cc1ccc(CCCn3cc(CCNC(=O)CCNC(=O)[C@@H]4OC(C)(C)OCC4(C)C)nn3)n1[B-]2(F)F [Compound 10, (R)—N-((((3-[4,4-Difluoro-5,7-dimethyl-4-bora-3a,4a-diaza-s-indacene-3-yl]propyl)-1H-1,2,3-triazol-4-yl)ethylamino)-3-oxopropyl)-2,2,5,5-tetramethyl-1,3-dioxane-4-carboxamide]
uptake: location of fluorescence in C. elegans ([2]; 3 h incubation): traces of compound 10 were detected in the gut cells and gut lumen of the larvae; also recorded: also visible to a lesser degree in the pharynx of the larvae
uptake: location of fluorescence in C. elegans ([2]; 20 h / overnight incubation): fluorescence was visible in the gut cells and in a smaller amount in the pharynx of the larval stages
uptake compared to other compounds ([2]; 20 h incubation): comparable with the enamide compounds showing the least uptake
uptake by infected and non-infected red blood cells [3]: not taken up to any visible extent
uptake in T. annulata [5]: very limited uptake
uptake in M. tuberculosis (fluorescence intensity / microscopy) [6]: minimal uptake

CC[C@H](C)[C@H]1O[C@]2(CC[C@@H]1C)C[C@@H]1C[C@@H](C/C=C(\C)[C@@H](O[C@H]3C[C@H](OC)[C@@H](O[C@H]4C[C@H](OC)[C@@H](O)[C@H](C)O4)[C@H](C)O3)[C@@H](C)/C=C/C=C3\CO[C@@H]4[C@H](O)C(C)=C[C@@H](C(=O)O1)[C@]34O)O2 [ivermectin B1a, reference compound]
concentration at which nematodes showed paralysis [1]: 50 µM

CC1=CC(C)=[N+]2C1=Cc1ccc(CCCn3cc(CCNC(=O)/C=C\NC(=O)[C@H]4OC(C)(C)OCC4(C)C)nn3)n1[B-]2(F)F [Compound 2, (Z)—N-((((3-[4,4-Difluoro-5,7-dimethyl-4-bora-3a,4a-diaza-s-indacene-3-yl]propyl)-1H-1,2,3-triazol-4-yl)ethylamino)-3-oxoprop-1-enyl)-2,2,5,5-tetramethyl-1,3-dioxane-4-carboxamide]
uptake: location of fluorescence in C. elegans ([2]; 3 h incubation): traces of compound 2 were observed in the pharynx, gut cells and gut lumen of the larval stages
uptake: location of fluorescence in C. elegans ([2]; 20 h / overnight incubation): fluorescence was localised in the gut cells, gut lumen and to a lesser extent within the pharynx of the larvae
uptake in L. passim (fluorescence intensity, microplate reader) ([7]; 1 μM and 100 μM): highest reading amongst all the compounds tested
uptake in L. passim (fluorescence microscopy) ([7]; 500 μM): exhibited fluorescence in the parasite's cytosol, with the derivative forming fluorescence dots
fluorescence in honey bee gut (crop, midgut, rectum) [8]: slight fluorescence in midgut and rectum, but none in the crop; also recorded: localised on the surface of the gut, but not inside of it
fluorescence intensity compared to compound 1 [6]: around 2.5 times
uptake in M. tuberculosis (fluorescence intensity / microscopy) [6]: preferred over their S counterparts; also recorded: highest fluorescence signals; also recorded: fluorescence is localised at the poles
uptake compared to compound 1 (% less) [9]: 90%

CC1=CC(C)=[N+]2C1=Cc1ccc(CCCN=[N+]=[N-])n1[B-]2(F)F [Compound 11, 3-Azido[4,4-difluoro-5,7-dimethyl-4-bora-3a,4a-diaza-s-indacene-3-yl]propane, reference compound]
uptake: location of fluorescence in C. elegans ([2]; 3 h incubation): slight fluorescence after 3 h, focalized in the gut lumen and gut cells
uptake: location of fluorescence in C. elegans ([2]; 20 h / overnight incubation): no significant increase in fluorescence even after 20 h incubation
uptake by infected and non-infected red blood cells [3]: diffused into every red blood cell (both infected and non-infected)
uptake in T. annulata [5]: diffused indiscriminately
fluorescence in honey bee gut (crop, midgut, rectum) [8]: showed only autofluorescence
uptake compared to compound 1 (% less) [9]: 90%
